From patent US20150087627A1, “COMBINATION OF KINASE INHIBITORS AND USES THEREOF” (Intellikine LLC, priority 2011, published 2015)
Where a name gives a salt, the structure may show the parent alone. Read-outs that look alike come from different tables or passages of the source.

How the values were obtained:
[1] = clinical use of the marketed drug; cited from earlier work
mTOR = molecular target: T1, mTOR (Homo sapiens, UniProt P42345); assay: mTOR kinase inhibition assay (radiometric or LanthaScreen TR-FRET); assay type: biochemical; details: read-out: mTORC IC50
T1 construct: purchased Invitrogen
T1 sequence (P42345 1360-2549 limits assumed): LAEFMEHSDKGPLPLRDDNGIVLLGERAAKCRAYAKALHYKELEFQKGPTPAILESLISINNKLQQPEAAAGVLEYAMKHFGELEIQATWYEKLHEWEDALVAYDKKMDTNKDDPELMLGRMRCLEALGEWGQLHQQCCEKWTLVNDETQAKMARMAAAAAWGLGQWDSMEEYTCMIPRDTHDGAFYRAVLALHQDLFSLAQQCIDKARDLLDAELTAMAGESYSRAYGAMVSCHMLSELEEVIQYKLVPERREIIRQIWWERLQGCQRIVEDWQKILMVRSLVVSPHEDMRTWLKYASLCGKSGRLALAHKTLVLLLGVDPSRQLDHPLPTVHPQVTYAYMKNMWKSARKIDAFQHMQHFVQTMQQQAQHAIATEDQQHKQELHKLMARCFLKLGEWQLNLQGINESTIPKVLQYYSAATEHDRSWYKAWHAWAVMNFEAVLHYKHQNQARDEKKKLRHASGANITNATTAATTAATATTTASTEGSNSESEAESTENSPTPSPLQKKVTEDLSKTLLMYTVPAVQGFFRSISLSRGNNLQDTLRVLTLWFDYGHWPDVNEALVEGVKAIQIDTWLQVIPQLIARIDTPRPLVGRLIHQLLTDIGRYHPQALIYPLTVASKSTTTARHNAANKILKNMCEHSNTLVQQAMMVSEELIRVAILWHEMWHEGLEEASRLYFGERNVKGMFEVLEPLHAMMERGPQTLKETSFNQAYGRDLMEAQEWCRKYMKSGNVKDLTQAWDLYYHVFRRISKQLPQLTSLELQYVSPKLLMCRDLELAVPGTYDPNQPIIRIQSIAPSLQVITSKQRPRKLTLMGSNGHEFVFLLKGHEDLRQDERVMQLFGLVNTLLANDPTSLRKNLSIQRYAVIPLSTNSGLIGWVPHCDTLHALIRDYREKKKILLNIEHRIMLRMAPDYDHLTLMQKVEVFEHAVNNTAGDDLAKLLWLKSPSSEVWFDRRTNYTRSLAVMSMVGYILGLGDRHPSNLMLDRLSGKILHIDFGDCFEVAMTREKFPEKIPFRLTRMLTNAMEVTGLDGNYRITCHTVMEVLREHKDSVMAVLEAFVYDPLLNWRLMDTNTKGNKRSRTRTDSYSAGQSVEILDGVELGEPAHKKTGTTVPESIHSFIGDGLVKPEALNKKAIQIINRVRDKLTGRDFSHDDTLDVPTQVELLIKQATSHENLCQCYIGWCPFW
Description: The cross-activity or lack thereof of one or more compounds of the present invention against mTor can be measured according to any procedures known in the art or methods disclosed below.
The compounds described herein can be tested against recombinant mTOR (Invitrogen) in an assay containing 50 mM HEPES, pH 7.5, 1 mM EGTA, 10 mM MgCl2, 2.5 mM, 0.01% Tween, 10 μM ATP (2.5 μCi of μ-32P-ATP), and 3 μg/mL BSA. Rat recombinant PHAS-1/4EBP1 (Calbiochem; 2 mg/mL) is used as a substrate. Reactions are terminated by spotting onto nitrocellulose, which is washed with 1M NaCl/1% phosphoric acid (approximately 6 times, 5-10 minutes each). Sheets are dried and the transferred radioactivity quantitated by phosphorimaging.
For instance, one can use Invitrogen's LanthaScreen™ Kinase assay to test the inhibitors of mTOR disclosed herein. This assay is a time resolved FRET platform that measures the phosphorylation of GFP labeled 4EBP1 by mTOR kinase. The kinase reaction is performed in a white 384 well microtiter plate. The total reaction volume is 20 ul per well and the reaction buffer composition is 50 mM HEPES pH7.5, 0.01% Polysorbate 20, 1 mM EGTA, 10 mM MnCl2, and 2 mM DTT. In the first step, each well receives 2 ul of test compound in 20% dimethylsulphoxide resulting in a 2% DMSO final concentration. […] The plate is sealed and incubated for 1 hour at room temperature. […] The plate is sealed, incubated for 1 hour at room temperature, and then read on a plate reader set up for LanthaScreen™ TR-FRET. Data is analyzed and IC50s are generated using GraphPad Prism 5.

PI3K α (p110α/p85α) = molecular target: T2, PI3K α (p110α/p85α) (Homo sapiens, UniProt P42336); assay: PI 3-Kinase (human) HTRF assay, PI3K α; assay type: biochemical; details: read-out: PI3K α IC50
T2 construct: purchased Upstate / Millipore Corporation

PI3K β (p110β/p85α) = molecular target: T3, PI3K β (p110β/p85α) (Homo sapiens, UniProt P42338); assay: PI 3-Kinase (human) HTRF assay, PI3K β; assay type: biochemical; details: read-out: PI3K β IC50
T3 construct: purchased Upstate / Millipore Corporation
T3 sequence (P42338 whole entry): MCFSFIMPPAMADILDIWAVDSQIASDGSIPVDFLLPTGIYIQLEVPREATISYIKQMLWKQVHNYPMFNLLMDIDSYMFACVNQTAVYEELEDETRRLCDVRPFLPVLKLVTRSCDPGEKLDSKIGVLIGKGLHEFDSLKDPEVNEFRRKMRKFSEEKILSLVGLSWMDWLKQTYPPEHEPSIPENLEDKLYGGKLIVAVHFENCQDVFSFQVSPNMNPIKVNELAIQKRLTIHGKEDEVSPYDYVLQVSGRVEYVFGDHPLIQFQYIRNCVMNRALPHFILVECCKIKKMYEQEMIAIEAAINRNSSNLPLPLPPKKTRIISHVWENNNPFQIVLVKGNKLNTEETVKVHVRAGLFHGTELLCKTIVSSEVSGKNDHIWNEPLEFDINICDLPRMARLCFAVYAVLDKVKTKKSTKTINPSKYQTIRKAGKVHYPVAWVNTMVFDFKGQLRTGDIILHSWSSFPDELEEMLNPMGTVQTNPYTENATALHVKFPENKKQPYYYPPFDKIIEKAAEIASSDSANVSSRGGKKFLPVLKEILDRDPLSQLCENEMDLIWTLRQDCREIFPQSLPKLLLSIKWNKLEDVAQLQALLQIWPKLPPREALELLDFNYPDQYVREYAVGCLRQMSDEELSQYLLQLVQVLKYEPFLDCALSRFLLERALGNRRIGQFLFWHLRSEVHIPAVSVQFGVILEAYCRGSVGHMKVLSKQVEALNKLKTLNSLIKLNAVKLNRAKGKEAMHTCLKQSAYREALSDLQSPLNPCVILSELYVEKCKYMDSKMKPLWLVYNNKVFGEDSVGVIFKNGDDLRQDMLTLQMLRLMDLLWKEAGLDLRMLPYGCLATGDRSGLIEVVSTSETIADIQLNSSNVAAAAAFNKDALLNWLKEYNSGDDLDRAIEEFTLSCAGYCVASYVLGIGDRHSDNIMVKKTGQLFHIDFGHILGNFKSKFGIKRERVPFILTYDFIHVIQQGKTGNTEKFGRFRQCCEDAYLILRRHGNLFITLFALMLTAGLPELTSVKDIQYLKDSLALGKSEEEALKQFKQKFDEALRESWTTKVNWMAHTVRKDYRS
T3 sequence (P27986 whole entry partner): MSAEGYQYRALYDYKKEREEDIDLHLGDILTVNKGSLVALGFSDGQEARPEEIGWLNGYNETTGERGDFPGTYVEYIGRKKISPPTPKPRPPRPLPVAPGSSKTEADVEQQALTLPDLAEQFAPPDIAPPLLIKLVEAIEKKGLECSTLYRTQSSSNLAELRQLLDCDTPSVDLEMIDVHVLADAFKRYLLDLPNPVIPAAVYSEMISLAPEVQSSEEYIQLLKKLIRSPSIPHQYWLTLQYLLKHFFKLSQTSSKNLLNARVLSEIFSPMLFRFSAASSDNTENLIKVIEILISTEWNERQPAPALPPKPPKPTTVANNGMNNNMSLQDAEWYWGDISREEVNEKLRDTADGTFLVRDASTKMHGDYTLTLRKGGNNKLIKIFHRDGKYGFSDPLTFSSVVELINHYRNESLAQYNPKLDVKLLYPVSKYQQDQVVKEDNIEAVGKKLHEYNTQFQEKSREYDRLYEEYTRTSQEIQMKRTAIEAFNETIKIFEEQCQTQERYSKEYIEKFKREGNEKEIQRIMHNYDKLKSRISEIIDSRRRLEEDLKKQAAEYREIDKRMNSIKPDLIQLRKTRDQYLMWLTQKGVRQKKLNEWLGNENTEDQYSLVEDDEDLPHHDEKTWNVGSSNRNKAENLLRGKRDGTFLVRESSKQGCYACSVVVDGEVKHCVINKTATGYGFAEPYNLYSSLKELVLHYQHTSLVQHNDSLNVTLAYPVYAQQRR

PI3K γ (p110γ) = molecular target: T4, PI3K γ (p110γ) (Homo sapiens, UniProt P48736); assay: PI 3-Kinase (human) HTRF assay, PI3K γ; assay type: biochemical; details: read-out: PI3K γ IC50
T4 construct: purchased Upstate / Millipore Corporation

PI3K δ = molecular target: T5, PI3K δ (Homo sapiens, UniProt O00329); assay: PI 3-Kinase (human) HTRF assay, PI3K δ; assay type: biochemical; details: read-out: PI3K δ IC50
T5 construct: purchased Upstate / Millipore Corporation
T5 sequence (O00329 whole entry): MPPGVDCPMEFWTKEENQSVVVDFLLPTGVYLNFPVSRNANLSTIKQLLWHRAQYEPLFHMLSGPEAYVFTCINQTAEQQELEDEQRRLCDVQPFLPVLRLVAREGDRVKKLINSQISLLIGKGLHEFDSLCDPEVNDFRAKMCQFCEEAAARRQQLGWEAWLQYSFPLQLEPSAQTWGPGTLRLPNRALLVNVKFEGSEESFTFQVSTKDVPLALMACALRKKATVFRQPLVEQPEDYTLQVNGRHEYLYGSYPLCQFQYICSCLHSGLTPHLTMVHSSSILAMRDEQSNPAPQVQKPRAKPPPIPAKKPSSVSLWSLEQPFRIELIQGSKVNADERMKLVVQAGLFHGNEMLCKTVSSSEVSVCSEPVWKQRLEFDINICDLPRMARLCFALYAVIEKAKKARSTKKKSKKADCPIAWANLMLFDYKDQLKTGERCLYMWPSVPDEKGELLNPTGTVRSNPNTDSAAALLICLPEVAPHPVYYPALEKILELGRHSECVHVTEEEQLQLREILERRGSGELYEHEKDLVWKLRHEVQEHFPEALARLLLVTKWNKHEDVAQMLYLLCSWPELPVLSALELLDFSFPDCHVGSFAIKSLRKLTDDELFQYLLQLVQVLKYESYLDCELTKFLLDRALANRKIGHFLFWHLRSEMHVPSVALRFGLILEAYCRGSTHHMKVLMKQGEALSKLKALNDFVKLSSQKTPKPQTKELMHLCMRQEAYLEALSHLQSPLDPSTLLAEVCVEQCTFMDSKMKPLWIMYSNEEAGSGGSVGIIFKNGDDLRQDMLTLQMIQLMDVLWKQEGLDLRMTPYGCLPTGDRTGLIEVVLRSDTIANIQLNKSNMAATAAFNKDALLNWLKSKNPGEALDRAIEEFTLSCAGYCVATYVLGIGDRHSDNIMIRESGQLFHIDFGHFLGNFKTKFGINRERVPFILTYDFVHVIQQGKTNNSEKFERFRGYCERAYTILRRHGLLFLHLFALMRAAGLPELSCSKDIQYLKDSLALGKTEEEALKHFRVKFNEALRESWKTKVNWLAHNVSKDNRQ
T5 sequence (P27986 whole entry partner): as the sequence (P27986 whole entry partner) above

Compound	dose limiting or most common side effect [1]	IC50 (mTOR) [nM]	IC50 (PI3K α (p110α/p85α)) [nM]	IC50 (PI3K β (p110β/p85α)) [nM]	IC50 (PI3K γ (p110γ)) [nM]	IC50 (PI3K δ) [nM]	IC50 (mTOR; Table 4 (PI3K α inhibitors)) [nM]	IC50 (PI3K α (p110α/p85α); Table 4 (PI3K α inhibitors)) [nM]	IC50 (PI3K β (p110β/p85α); Table 4 (PI3K α inhibitors)) [nM]	IC50 (PI3K γ (p110γ); Table 4 (PI3K α inhibitors)) [nM]	IC50 (PI3K δ; Table 4 (PI3K α inhibitors)) [nM]
CCC1=C[C@@H]2CN(C1)Cc1c([nH]c3ccccc13)[C@@](C(=O)OC)(c1cc3c(cc1OC)N(C)[C@H]1[C@@](O)(C(=O)OC)[C@H](OC(C)=O)[C@]4(CC)C=CCN5CC[C@]31[C@@H]54)C2 (relative stereo) [vinorelbine, 3′,4′-didehydro-4′-deoxy-C′-norvincaleukoblastine [R—(R*,R*)-2,3-dihydroxybutanedioate (1:2)(salt)]]	Myelosuppression	–	–	–	–	–	–	–	–	–	–
O=c1[nH]cc(F)c(=O)[nH]1 [5-fluorouracil, 5-fluoro-2,4-(1H,3H) pyrimidinedione]	Myelosuppression and mucositis	–	–	–	–	–	–	–	–	–	–
CN1CCN(C2CN(c3cnc4ccc(-c5ccc6oc(N)nc6c5)cc4n3)C2)CC1=O [Compound 323]	–	> 10000	< 100	< 10000	< 1000	< 10000	–	–	–	–	–
CCN(CC)C1CN(c2cnc3ccc(-c4ccc5oc(N)nc5c4)cc3n2)C1 [Compound 324]	–	> 10000	< 100	< 10000	< 1000	< 10000	–	–	–	–	–
Nc1nc2cc(-c3ccc4ncc(N5CC(N6CCNCC6)C5)nc4c3)ccc2o1 [Compound 326]	–	> 10000	< 100	< 1000	< 1000	< 1000	–	–	–	–	–
CC(=O)N1CCN(C2CN(c3cnc4ccc(-c5ccc6oc(N)nc6c5)cc4n3)C2)CC1 [Compound 327]	–	> 10000	< 100	< 10000	< 1000	< 1000	–	–	–	–	–
CS(=O)(=O)N1CCN(C2CN(c3cnc4ccc(-c5ccc6oc(N)nc6c5)cc4n3)C2)CC1 [Compound 328]	–	> 10000	< 100	< 10000	< 10000	< 10000	–	–	–	–	–
CCN1CCN(C2CN(c3cnc4ccc(-c5ccc6oc(N)nc6c5)cc4n3)C2)CC1 [Compound 329]	–	> 10000	< 100	< 1000	< 10000	< 1000	–	–	–	–	–
COC(=O)N1CCC(n2ncc3c(N4CCOCC4)nc(-c4ccc5oc(N)nc5c4)nc32)CC1 [Compound 330]	–	< 1000	< 1000	< 10000	> 10000	> 10000	–	–	–	–	–
CC(C)N1CCN(C2CN(c3cnc4ccc(-c5ccc6oc(N)nc6c5)cc4n3)C2)CC1 [Compound 331]	–	> 10000	< 100	< 10000	< 10000	< 10000	–	–	–	–	–
Nc1nc2cc(-c3ccc4ncc(N5CC(N6CCN(CCO)CC6)C5)nc4c3)ccc2o1 [Compound 333]	–	> 10000	< 100	< 10000	< 10000	< 1000	–	–	–	–	–
Nc1nc2cc(-c3ccc4ncc(N5CC(N6CCN(CC7CC7)CC6)C5)nc4c3)ccc2o1 [Compound 335]	–	> 10000	< 100	< 10000	> 10000	< 10000	–	–	–	–	–
Nc1nc2cc(-c3ccc4ncc(N5CCC(n6ccnc6)CC5)nc4c3)ccc2o1 [Compound 345]	–	< 10000	< 100	< 1000	< 1000	< 1000	–	–	–	–	–
Nc1nc2cc(-c3nc(N4CCOCC4)c4cnn(C5CCNCC5)c4n3)ccc2o1 [Compound 348]	–	< 1000	< 1000	< 100	< 1000	< 10000	–	–	–	–	–
C[C@H]1CN(C2CN(c3cnc4ccc(-c5ccc6oc(N)nc6c5)cc4n3)C2)CCN1 [Compound 350]	–	> 10000	< 100	< 10000	> 10000	< 10000	–	–	–	–	–
Cc1cc2oc(N)nc2cc1-c1ccc2ncc(N3CC(N4CCOCC4)C3)nc2c1 [Compound 353]	–	> 10000	< 10000	> 10000	> 10000	> 10000	–	–	–	–	–

Compound	dose limiting or most common side effect [1]	IC50 (mTOR) [nM]	IC50 (PI3K α (p110α/p85α)) [nM]	IC50 (PI3K β (p110β/p85α)) [nM]	IC50 (PI3K γ (p110γ)) [nM]	IC50 (PI3K δ) [nM]	IC50 (mTOR; Table 4 (PI3K α inhibitors)) [nM]	IC50 (PI3K α (p110α/p85α); Table 4 (PI3K α inhibitors)) [nM]	IC50 (PI3K β (p110β/p85α); Table 4 (PI3K α inhibitors)) [nM]	IC50 (PI3K γ (p110γ); Table 4 (PI3K α inhibitors)) [nM]	IC50 (PI3K δ; Table 4 (PI3K α inhibitors)) [nM]
Cc1nccn1C1CN(c2cnc3ccc(-c4ccc5oc(N)nc5c4)cc3n2)C1 [Compound 354]	–	< 10000	< 100	< 10000	< 10000	< 10000	–	–	–	–	–
Nc1nc2cc(-c3ccc4ncc(N5CC(N6CCOCC6)C5)nc4c3)c(F)cc2o1 [Compound 373]	–	> 10000	< 100	< 10000	< 10000	< 10000	–	–	–	–	–
CS(=O)(=O)N1CCN(C2CCN(c3cnc4ccc(-c5ccc6oc(N)nc6c5)cc4n3)CC2)CC1 [Compound 377]	–	< 10000	< 100	< 10000	< 1000	< 10000	–	–	–	–	–
CN1CCN([C@@H]2CCN(c3cnc4ccc(-c5ccc6oc(N)nc6c5)cc4n3)C2)CC1 [Compound 379]	–	< 10000	< 100	< 1000	> 10000	< 10000	–	–	–	–	–
COc1ncc(-c2ccc3ncc(C(=O)N4CCOCC4)n3c2)cc1NS(=O)(=O)c1ccc(F)cc1F [Compound 417]	–	< 1000	< 100	< 100	< 100	< 100	–	–	–	–	–
O=C(c1cnc2ccc(-c3cnc(Cl)c(NS(=O)(=O)c4ccc(F)cc4F)c3)cn12)N1CCOCC1 [Compound 419]	–	< 1000	< 100	< 100	< 100	< 100	–	–	–	–	–
NCC(=O)N1CCN(c2cnc3ccc(-c4ccc5oc(N)nc5c4)nc3c2)CC1 [Compound 588]	–	–	–	–	–	–	> 10000	< 100	< 1000	< 1000	< 1000
Nc1nc2cc(-c3ccc4ncc(N5CCN(C(=O)C6(N)CC6)CC5)nc4n3)ccc2o1 [Compound 592]	–	–	–	–	–	–	< 10000	< 100	< 10000	< 100	< 10000
CC(C)(N)C(=O)N1CCN(c2cnc3ccc(-c4ccc5oc(N)nc5c4)nc3c2)CC1 [Compound 594]	–	–	–	–	–	–	> 10000	< 100	< 10000	< 1000	< 1000
CC(C)N1CCN(c2cnc3ccc(-c4ccc5oc(N)nc5c4)nc3c2)CC1 [Compound 595]	–	–	–	–	–	–	> 10000	< 100	< 1000	< 1000	< 1000
CC(C)N1CCN(C2CN(c3cnc4ccc(-c5ccc6oc(N)nc6c5)nc4c3)C2)CC1 [Compound 623]	–	–	–	–	–	–	> 10000	< 100	< 1000	< 10000	< 1000
CN1CCN(C2CN(c3cnc4ccc(-c5ccc6oc(N)nc6c5)nc4c3)C2)CC1 [Compound 625]	–	–	–	–	–	–	> 10000	< 100	< 1000	< 1000	< 1000
CS(=O)(=O)OCCCCOS(C)(=O)=O [busulfan, 1,4-butanediol dimethanesulfonate]	Bone marrow suppression	–	–	–	–	–	–	–	–	–	–
N.N.O=C([O-])C1(C(=O)[O-])CCC1.[Pt+2] [carboplatin, platinum, diamine [1,1-cyclobutane-dicarboxylate(2-)-O,O′]]	Bone marrow suppression	–	–	–	–	–	–	–	–	–	–
O=C(O)CCCc1ccc(N(CCCl)CCCl)cc1 [chlorambucil]	Bone marrow suppression	–	–	–	–	–	–	–	–	–	–
N.N.[Cl][Pt][Cl] [cisplatin, cis-diamminedichloroplatinum]	nephrotoxicity, which may be controlled by hydration and diuresis, and ototoxicity	–	–	–	–	–	–	–	–	–	–
